# A melting point compilation (Tetko et al.; mined from patent text by program, amines drawn as free bases though some values may be those of a salt)
row,Structure (SMILES),melting point [°C]
1,CN1C(=O)CSC(c2cccc(Cl)c2)c2cc(C(O)(c3ccc(Cl)cc3)c3cncn3C)ccc21 (centres undefined),186
2,CCOC(=O)N(C)n1cccc1C(=O)c1ccccc1,50 to 52
3,N#Cc1ccc2c(c1)C1OC1C1(CCCCC1)O2 (centres undefined),222 to 225
4,COc1cc(C#N)ccc1-c1cc2cc(Cl)c(Cl)cc2[nH]1,241 to 244
5,C=C(c1cc(Cl)ccc1N1CCCCC1)C(C(N)=O)c1ccc(C(=O)O)cc1 (centres undefined),198 to 200
6,O=C1CCCN1c1cccc(-c2ccnc3c([N+](=O)[O-])cnn23)c1,226 to 228
7,COC(=O)NC1=NC(c2cccc(O)c2)CN1 (centres undefined),180 to 183
8,CCCCOc1ccc2c(O)c(C(=O)NCCO)nc(Cl)c2c1,118 to 120
9,N#Cc1ccc(N2CCC(CCO)CC2)c2ccccc12,128 to 129
10,O=C(Cc1cccc(Br)c1)Nc1ccc(Sc2c(O)c3c(Cl)cc(Cl)cc3[nH]c2=O)cc1,292 to 296
11,Cc1[nH]cnc1CSCCNC1=C([N+](=O)[O-])CCCN1,206
12,COC(=O)C(CCON1C(=O)c2ccccc2C1=O)NC(=O)Cc1ccccc1 (centres undefined),138 to 139
13,CCC(CC)(CCCCS(N)(=O)=O)COc1nn2ncnc2cc1C,132 to 133
14,COc1ccc(CN2CCC(C(=O)O)(S(=O)(=O)c3ccc(OC)cc3)CC2)cc1,175
15,CCOC(=O)CCCCOc1ccc(N2CCN(c3ccncc3)CC2)cc1,79 to 82
16,CS(=O)(=O)c1ccc(-c2oc(CO)cc(=O)c2Oc2ccc(Cl)cc2)cc1,227
17,CCOC(=O)C1=CC2(CCC1S(=O)(=O)Nc1ccc(F)cc1Cl)CCC1(COCOO1)CO2 (centres undefined),156 to 157
18,CNC(=S)NCCCCc1nc[nH]c1C,110 to 112
19,C=C(C)[C@H]1CC[C@@](C)(O)[C@H](N[C@@H](C)C2CCCCC2)C1,63 to 64
20,CC(=O)NC(C)Cn1cc(-c2ccccc2)c2ccccc2c1=O (centres undefined),177
21,O=C(Nc1cc(C(=O)O)cc(-c2ccccc2)c1)OCc1cc2cc(-c3ccccc3)ccc2o1,174 to 175
22,CCOC(=O)c1ccc(OCC(O)COc2cccc3oc(C(=O)OCC)cc(=O)c23)cc1 (centres undefined),134 to 135
23,COC1(c2cccc3[nH]ccc23)CCNCC1,216

row,Structure (SMILES),melting point [°C]
1,O=C(Nc1ccc(F)cc1)N(O)Cc1ccc(OCc2csc(-c3ccc(C(F)(F)F)cc3)n2)cc1,174 to 176
2,COc1ccc2c(c1)CCC1C2C(O)CC2(C)C(O)CCC12 (centres undefined),161 to 162
3,CCCC(CCC)Nc1cc(C(=O)OC)ccc1N1C(=O)CCC1(CO)CO,139 to 140
4,COc1ccccc1C1CC=NN1C(=O)c1cccnc1 (centres undefined),93 to 95
5,Cc1nc(-c2cccs2)c2nc(-c3ccccc3)cc-2[nH]1,178 to 179
6,"O=C(c1ccccc1)N1CCOC(CCOS(=O)(=O)c2ccccc2)(c2ccc(F)c(F)c2)C1 (single isomer, unassigned; (+))",82.8
7,CS(=O)(=O)Nc1ccc(C(O)C2CCN(CCc3ccccc3)CC2)cc1 (centres undefined),164 to 166
8,CCOC(=O)c1cnn(-c2ccc(Cl)cc2)c1N,150 to 156
9,NC(=O)NC(=O)c1ccc2ccccc2c1,207 to 208
10,CCCC(=O)N(Cc1ccc(-c2ccccc2C#N)cc1)c1nn(C)cc1C(=O)OCC,118 to 119
11,CCOC(=O)c1cnc(Nc2cccc(C(F)(F)F)c2)[nH]c1=O,229 to 230
12,O=C(NCCCCN1CCC(Oc2cccc3ccccc23)CC1)c1ccc(-c2ccc(C(F)(F)F)cc2)cc1,166
13,N#Cc1ccccc1NC(=O)c1ccc(-n2nc(C(F)(F)F)cc2C(F)(F)F)cc1,203 to 205
14,Nc1nc(N)nc(OCc2ccccc2)n1,184 to 185
15,CC(=O)C(=CN(C)C)c1ccc(N2CCC(c3ccccc3)CC2)cc1,93 to 100
16,O=C1CC(O)CC(CCc2c(Cl)cc(Cl)cc2OCc2ccc(C(F)(F)F)cc2)O1 (centres undefined),104 to 105
17,O=c1c(CO)c(-c2ccc(O)cc2)oc2ccccc12,234 to 235
18,CCc1cc(-c2nc(C)c(-c3ccnc(Nc4cccc(CNC(C)=O)c4)n3)s2)ccn1,180 to 182
19,CCNS(=O)(=O)c1ccc(Cl)c(C)c1C#N,85 to 90
20,CCCCCCCCCCOc1cccc(C(=O)N(CC(=O)O)CC(=O)O)c1,87 to 90
21,CC(C)(O)CCCCCc1ccc(CCc2cc(O)cc(O)c2)cc1,128 to 130
22,COc1cccc2c(=O)n3nc(C(N)=O)cc3[nH]c12,265 to 270
23,OCC1OC(n2cnc3c2N=CNCC3O)C(O)C1O (centres undefined),178 to 183

row,Structure (SMILES),melting point [°C]
1,COc1cc(C=O)cc(OC)c1OC1OC(CO)C(O)C(O)C1NC(C)=O (centres undefined),186 to 189
2,CC(C)CC(=O)Nc1cccc(-c2ccnc3c(-c4ccc5c(c4)OCO5)cnn23)c1,172 to 173
3,O=C(CNC(=O)c1ccc(Cl)c(Cl)c1)c1ccoc1,133 to 134
4,OCC(Br)c1ccccc1 (centres undefined),38 to 39
5,O=C1c2cc(Br)ccc2CCc2ccc(S(=O)(=O)F)cc21,148 to 151
6,O=C(CCl)NCc1cc2c(c(Br)c1O)CCCC2=O,201 to 203
7,O=C1Nc2ccccc2C12COc1cc(F)c(F)cc12 (centres undefined),> 200
8,C[C@@H]1CN(C(=O)[C@@](C)(O)C(F)(F)F)[C@@H](C)CN1S(=O)(=O)c1ccc(C(=O)N(C)C)cc1,86 to 87
9,O=C1C(O)=C(Br)C(=O)c2ccc(F)cc21,183
10,COc1cc(Br)ccc1OCc1ccc2ccccc2c1,108
11,O=C1CCC(N2Cc3c(OCc4ccc(CCN5CCOCC5)cc4)cccc3C2=O)C(=O)N1 (centres undefined),230 to 232
12,CC1C[C@H]2[C@@H](O1)[C@H](N=[N+]=[N-])C(=O)N2Cc1ccccc1 (relative stereo),70 to 73
13,O=C(c1ccnc(F)c1)N1CCC[C@H](c2noc(-c3ccc(F)cc3)n2)C1,117 to 119
14,CC(C)(C)C(=O)Nc1nc(CN2CCC(c3c[nH]c4ccccc34)CC2)cs1,93 to 96
15,CSc1cc2c(cc1C(F)(F)F)N(C(=O)Nc1cccc(-c3csc(-c4cccnc4)n3)c1)CC2,154 to 155
16,Cc1cnc2c(c1)C[C@H](Cc1ccc(O)cc1)CC2,157 to 158
17,CC(C)(C)c1cc(CCC(=O)Oc2ccccc2)ccc1O,106 to 109
18,O=C(C1=CNCCS1)c1ccc(F)cc1,212 to 214
19,COc1ccc(Cl)cc1NC(=O)Nc1ccc(N2CCN(C(=O)OC(C)(C)C)CC2)cc1,205
20,COc1cc2c(c3c1OC(C)(C)C3)C(c1ccn(Cc3ccc(C(=O)Nc4ccncc4)cc3)c(=O)c1)=NC(C)(C)C2,144 to 146
21,CCC(=O)c1cc(C2(c3cccc(Br)c3)N=C(N)N(C)C2=O)cn1CC (centres undefined),100 to 102

# The remaining lines, values ahead:
row,melting point [°C],Structure (SMILES)
1,190 to 191,O=C(CNCc1cccc(C(F)(F)F)c1)Nc1cccc2c1C(=O)c1c(NC(=O)CNCc3cccc(C(F)(F)F)c3)cccc1C2=O
2,121 to 122,CCOC(=O)Cn1c(C(=O)OCC)c(O)c(O)c1C(=O)OCC
3,68 to 71,CCOC1CC2CCC3C4CCC(C(C)=O)C4(C)CC(NC(=O)OCC(Cl)(Cl)Cl)C3C2(C)CC1OCC (centres undefined)
4,186 to 187,COc1cc(COc2nn(-c3ccccc3)cc2/C=C/c2nnc(C)o2)ccc1OCc1nc(-c2ccco2)oc1C
5,190 to 192,Cn1c2ccccc2c2oc(C#N)cc(=O)c21
6,120 to 124,COc1cc(Nc2c(C#N)cnc3cc(-c4cc(CN5CCOCC5)c(CN5CCOCC5)s4)c(OC)cc23)c(Cl)cc1Cl
7,209 to 211,CCc1nc2cc(/C=C/C(=O)NO)ccc2c(=O)n1CCc1ccccc1
8,124 to 126,CCN1CC(=O)N(c2c(C)cccc2Cl)C1=S
9,204 to 206,CC(=O)NC(=Cc1c[nH]c2cc(C)ccc12)C(=O)O
10,247 to 250,CCc1cnc(N2CCC(c3nc4cc(-c5ccc(S(C)(=O)=O)cc5F)ccc4o3)CC2)nc1
11,116 to 119,O=C(NC(CCl)CCOc1ccc(Br)cc1)c1c(F)cccc1F (centres undefined)
12,62 to 68,CCC(C(=O)C(=O)O)c1ccccc1 (centres undefined)
13,65 to 67,Fc1cc(Br)cc(OCc2ccc3ccccc3c2)c1
14,139 to 140,COCCn1cc(C2CCN(CCOc3ccccc3C(=O)O)CC2)c2ccccc21
15,147 to 148,COC(=O)C(Cc1ccc(OCc2ccccc2)cc1)N1CC(N2C(=O)c3ccccc3C2=O)C1=O (centres undefined)
16,> 300,O=C(O)c1cn(-c2ccc(F)cc2)c2c(F)c(N3Cc4cccc(F)c4C3)c(F)cc2c1=O

row,melting point [°C],Structure (SMILES)
1,100 to 102,COc1nc(C)c(C(C)O)cc1NC(=O)N1CCN(c2cccc(C)c2C)CC1 (centres undefined)
2,236 to 238,OC1CCCCC1n1cnc2cc(Cl)c(Cl)cc21 (centres undefined)
3,111 to 113,O=C(c1ccc(OC23CC4CC(CC(C4)C2)C3)cc1)N1CCCC1
4,111 to 112,CCOCc1nc2c(N)nc3cccnc3c2n1CCCON=C1CCN(C)CC1
5,222 to 223,Cc1c(NC(=O)c2ccc(C#CC3(O)CCC3)cc2)ccc2cc(CNCC(C)C)n(C)c12
6,201 to 202,Clc1ccc2c(NNc3ccccc3)c3c(nc2c1)CCSC3
7,169 to 171,CC(=O)Nc1ccc(Nc2ccccc2)cc1
8,225 to 227,O=C1NC(=O)c2c1c(-c1ccccc1Cl)cc1c2ccn1CCCO
9,166,CN(C)C(=O)CCc1c(-c2ccccc2)n(C)c(=O)c2ccccc12
10,174 to 176,COc1cc(C(O)C#Cc2c(C)nc(N)nc2N)cc(OC)c1OC (centres undefined)
11,120 to 141,CCC(=O)Nc1cccc(C2(c3cc(C(=O)CC)n(CC)c3)N=C(N)N(C)C2=O)c1 (centres undefined)
12,147 to 149,O=C(O)C(=O)CC(=O)c1cccn1Cc1cccc(F)c1
13,104 to 105,Cc1ccsc1C(=O)NCCCSc1ccncc1
14,121 to 124,COC(=O)c1oc2cc3ccccc3cc2c1OC
15,197 to 200,COc1cccc(C(C)CC(=O)Nc2sc3c(c2C#N)CCNC3)c1 (racemic)
16,68 to 69,COc1ccc(C(=O)Cc2ccccc2)cc1
